In ChEMBL document CHEMBL1154291, “Synthesis and SAR of 2-phenyl-1-sulfonylaminocyclopropane carboxylates as ADAMTS-5 (Aggrecanase-2) inhibitors” (Bioorg Med Chem Lett, 2009):
pIC50: −log10 of the molar value.

Key:
[1] = molecular target: T1, A disintegrin and metalloproteinase with thrombospondin motifs 5 (Homo sapiens, UniProt Q9UNA0); test: Inhibition of ADAMTS5
T1 sequence (Q9UNA0 whole entry): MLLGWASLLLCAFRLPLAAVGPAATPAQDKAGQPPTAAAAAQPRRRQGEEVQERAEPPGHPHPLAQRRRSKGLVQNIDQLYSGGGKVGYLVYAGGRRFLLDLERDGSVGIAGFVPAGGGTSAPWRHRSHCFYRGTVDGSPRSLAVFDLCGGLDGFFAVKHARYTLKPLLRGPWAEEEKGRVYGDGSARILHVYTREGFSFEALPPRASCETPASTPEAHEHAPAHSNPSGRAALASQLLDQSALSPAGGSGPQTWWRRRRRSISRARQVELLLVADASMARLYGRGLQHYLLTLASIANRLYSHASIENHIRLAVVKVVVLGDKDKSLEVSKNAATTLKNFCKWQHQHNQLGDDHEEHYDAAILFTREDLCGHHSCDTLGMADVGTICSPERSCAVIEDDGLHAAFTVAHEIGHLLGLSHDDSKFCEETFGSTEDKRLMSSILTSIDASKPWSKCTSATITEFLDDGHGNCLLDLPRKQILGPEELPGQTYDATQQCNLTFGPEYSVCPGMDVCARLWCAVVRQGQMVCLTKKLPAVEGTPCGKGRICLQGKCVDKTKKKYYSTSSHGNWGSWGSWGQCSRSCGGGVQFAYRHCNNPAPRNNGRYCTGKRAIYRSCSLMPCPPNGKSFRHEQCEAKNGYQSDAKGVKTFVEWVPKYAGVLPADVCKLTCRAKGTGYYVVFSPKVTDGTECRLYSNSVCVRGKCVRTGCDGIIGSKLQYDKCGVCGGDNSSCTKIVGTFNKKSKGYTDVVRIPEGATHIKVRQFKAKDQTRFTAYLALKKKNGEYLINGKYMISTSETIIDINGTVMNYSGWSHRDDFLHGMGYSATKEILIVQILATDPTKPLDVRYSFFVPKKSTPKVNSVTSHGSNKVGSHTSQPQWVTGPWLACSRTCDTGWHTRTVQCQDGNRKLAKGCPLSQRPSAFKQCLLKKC

[2] = molecular target: T2, A disintegrin and metalloproteinase with thrombospondin motifs 5 (Homo sapiens) (UniProt Q9UNA0); test: Inhibition of ADAMTS5 at 0.3 uM
T2 sequence (whole entry): T1 sequence (Q9UNA0 whole entry)

[3] = molecular target: T2, A disintegrin and metalloproteinase with thrombospondin motifs 5 (Homo sapiens); test: Inhibition of ADAMTS5 at 1 uM
[4] = molecular target: Disintegrin and metalloproteinase domain-containing protein 17 (Homo sapiens, UniProt P78536); test: Inhibition of TACE
[5] = Half life in rat; assay type: ADME, organism-based; settings: in vivo
Interstitial collagenase = molecular target: T3, Interstitial collagenase (Homo sapiens, UniProt P03956); test: Inhibition of MMP-1
T3 sequence (P03956 whole entry): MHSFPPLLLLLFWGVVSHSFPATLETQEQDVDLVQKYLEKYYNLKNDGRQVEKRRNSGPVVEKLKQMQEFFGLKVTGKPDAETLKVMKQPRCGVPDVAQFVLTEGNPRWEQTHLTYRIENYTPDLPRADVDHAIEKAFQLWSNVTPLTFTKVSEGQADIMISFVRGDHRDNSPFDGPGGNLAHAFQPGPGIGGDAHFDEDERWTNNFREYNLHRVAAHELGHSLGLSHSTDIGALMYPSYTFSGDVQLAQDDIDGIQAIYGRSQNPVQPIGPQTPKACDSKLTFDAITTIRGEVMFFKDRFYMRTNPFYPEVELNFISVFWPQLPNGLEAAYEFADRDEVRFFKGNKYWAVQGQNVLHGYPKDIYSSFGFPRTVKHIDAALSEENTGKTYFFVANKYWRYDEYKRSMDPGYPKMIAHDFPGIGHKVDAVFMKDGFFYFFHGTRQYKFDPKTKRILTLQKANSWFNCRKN

[6] = Oral bioavailability in rat; assay type: ADME, organism-based; settings: in vivo

Disintegrin and metalloproteinase domain-containing protein 17, sequence (P78536 whole entry, the tested form may be a part): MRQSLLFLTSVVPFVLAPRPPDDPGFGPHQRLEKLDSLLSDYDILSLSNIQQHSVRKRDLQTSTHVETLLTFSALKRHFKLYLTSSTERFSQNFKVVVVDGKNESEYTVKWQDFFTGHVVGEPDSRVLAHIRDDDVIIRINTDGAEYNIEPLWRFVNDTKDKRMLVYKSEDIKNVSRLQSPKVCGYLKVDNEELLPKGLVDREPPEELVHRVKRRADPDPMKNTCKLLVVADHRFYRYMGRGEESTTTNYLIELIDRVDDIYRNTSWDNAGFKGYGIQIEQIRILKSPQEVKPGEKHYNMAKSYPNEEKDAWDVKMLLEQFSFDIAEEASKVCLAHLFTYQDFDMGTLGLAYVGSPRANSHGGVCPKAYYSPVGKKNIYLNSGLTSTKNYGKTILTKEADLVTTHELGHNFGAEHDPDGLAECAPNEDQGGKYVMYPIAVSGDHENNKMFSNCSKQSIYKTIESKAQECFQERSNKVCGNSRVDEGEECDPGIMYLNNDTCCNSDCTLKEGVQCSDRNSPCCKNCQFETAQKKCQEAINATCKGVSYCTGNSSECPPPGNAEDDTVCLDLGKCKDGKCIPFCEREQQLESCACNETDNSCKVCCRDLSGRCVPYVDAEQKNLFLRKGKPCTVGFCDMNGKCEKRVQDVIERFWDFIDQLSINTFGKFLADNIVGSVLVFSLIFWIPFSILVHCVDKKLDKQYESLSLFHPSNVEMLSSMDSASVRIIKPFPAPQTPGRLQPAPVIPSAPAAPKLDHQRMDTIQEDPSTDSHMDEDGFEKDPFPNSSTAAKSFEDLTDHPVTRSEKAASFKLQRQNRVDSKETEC

With `O=C(O)[C@]1(NS(=O)(=O)c2ccc(-c3ccc(Cl)cn3)s2)C[C@@H]1c1ccccc1` as the compound, how does the pIC50 [1] read?
Its pIC50 is 7.00.

With `O=C(O)[C@]1(NS(=O)(=O)c2ccc(-n3cc(Cl)cn3)s2)C[C@@H]1c1ccccc1` as the compound, how does the pIC50 [1] read?
The pIC50 was 7.10.

With `O=C(O)[C@]1(NS(=O)(=O)c2ccc(-c3ccc(Cl)cc3)s2)C[C@@H]1c1ccccc1` as the compound, how does the pIC50 [1] read?
The pIC50 was 7.22.

With `O=C(O)[C@]1(NS(=O)(=O)c2ccc(-c3cccc(Cl)c3)s2)C[C@@H]1c1ccccc1` as the compound, how does the pIC50 [1] read?
Its pIC50 is 7.03.

With `C[C@@H]1[C@H](c2ccccc2)[C@]1(NS(=O)(=O)c1ccc(-c2ccc(Cl)cc2)s1)C(=O)O` as the compound, how does the pIC50 [1] read?
Its pIC50 is 7.68.

With `C[C@]1(c2ccccc2)C[C@@]1(NS(=O)(=O)c1ccc(-n2cc(Cl)cn2)s1)C(=O)O` as the compound, how does the pIC50 [1] read?
The pIC50 was 7.49.

With `C[C@@H]1[C@H](C)[C@]1(NS(=O)(=O)c1ccc(-n2cc(Cl)cn2)s1)C(=O)O` as the compound, how does the pIC50 [1] read?
The pIC50 was 6.10.

With `C[C@]1(c2ccccc2)C[C@@]1(NS(=O)(=O)c1ccc(-c2ccc(Cl)cc2)s1)C(=O)O` as the compound, how does the pIC50 [1] read?
The pIC50 was 8.00.

With `O=C(O)[C@@]1(NS(=O)(=O)c2ccc(-c3ccc(Cl)cc3)cc2)C[C@H]1c1ccccc1` as the compound, how does the pIC50 [1] read?
Its pIC50 is 6.68.

With `O=C(O)[C@]1(NS(=O)(=O)c2ccc(-c3ccc(Cl)cc3)cc2)C[C@@H]1c1ccccc1` as the compound, how does the pIC50 [1] read?
Its pIC50 is 7.08.

Which inhibition [2] does the source give for `COC(=O)c1cn(CCN([C@@]2(C(=O)O)C[C@@H]2c2ccccc2)S(=O)(=O)c2ccc(-c3ccc(Cl)cc3)cc2)cn1` here?
The inhibition was 18%.

Which inhibition [3] does the source give for `O=C(O)[C@]1(NS(=O)(=O)c2ccc(-c3ccccc3Cl)s2)C[C@@H]1c1ccccc1` here?
The inhibition was 48%.

With `C[C@H]1[C@H](c2ccccc2)[C@]1(NS(=O)(=O)c1ccc(-c2ccc(Cl)cc2)s1)C(=O)O` (racemic) as the compound, how does the pIC50 [1] read?
The pIC50 was 6.92.

With `C[C@@H]1[C@H](c2ccccc2)[C@]1(NS(=O)(=O)c1ccc(-n2cc(Cl)cn2)s1)C(=O)O` (racemic) as the compound, how does the pIC50 [4] read?
The pIC50 was 5.40.

What about the half-life [5] of the same compound?
The half-life was 4.5 h.

And the pIC50 (Interstitial collagenase)?
The pIC50 was 6.74.

And the pIC50 [1]?
Its pIC50 is 8.13.

What about the bioavailability [6] of the same compound?
The bioavailability was 81%.

With `CC(C)[C@H]1C[C@@]1(NS(=O)(=O)c1ccc(-n2cc(Cl)cn2)s1)C(=O)O` (racemic) as the compound, how does the pIC50 [1] read?
Its pIC50 is 6.11.

With `O=C(O)[C@]1(NS(=O)(=O)c2ccc(-n3cc(Cl)cn3)s2)C[C@@H]1C1CCCCC1` (racemic) as the compound, how does the pIC50 [1] read?
The pIC50 was 6.44.

Which inhibition [3] does the source give for `CC1(C)C[C@@]1(NS(=O)(=O)c1ccc(-n2cc(Cl)cn2)s1)C(=O)O` (racemic) here?
Its inhibition is 19.6%.

With `C[C@H]1C[C@@]1(NS(=O)(=O)c1ccc(-n2cc(Cl)cn2)s1)C(=O)O` (racemic) as the compound, how does the inhibition [3] read?
Its inhibition is 3.5%.

With `O=C(O)[C@]1(NS(=O)(=O)c2ccc(-n3cc(Cl)cn3)s2)CC[C@@H]1c1ccccc1` (racemic) as the compound, how does the inhibition [3] read?
Its inhibition is -0.84%.

Which inhibition [3] does the source give for `O=C(O)[C@]1(NS(=O)(=O)c2ccc(-n3cc(Cl)cn3)s2)C[C@@H]1Cc1ccccc1` (racemic) here?
Its inhibition is 25%.
